Measured values taken from the NIST ThermoML archive (doi:10.1021/acs.jced.5b00259).
Numbers after ± are expanded uncertainties.

Test: xn = mol fraction of the nth substance listed
Details: 100 kPa, Liquid

CC[NH+]=C(N(C)C)N(C)C.O=S(=O)([N-]S(=O)(=O)C(F)(F)F)C(F)(F)F + CCCO
Details | mass density [kg/m3] | viscosity [mPa·s]
293.15 K, x1 = 0.1024 | 997.39 ± 0.38 | 4.462 ± 0.18
293.15 K, x1 = 0.2019 | 1114.71 ± 0.65 | 7.27 ± 0.29
293.15 K, x1 = 0.2973 | 1192.09 ± 1.2 | 10.87 ± 0.44
293.15 K, x1 = 0.4011 | 1252.75 ± 2 | 16.1 ± 0.67
293.15 K, x1 = 0.4988 | 1295.36 ± 3 | 21.63 ± 0.91
293.15 K, x1 = 0.5962 | 1328.36 ± 4.2 | 28.19 ± 1.2
293.15 K, x1 = 0.6997 | 1356.59 ± 5.8 | 36.71 ± 1.6
293.15 K, x1 = 0.7931 | 1377.81 ± 7.6 | 45.87 ± 2.1
293.15 K, x1 = 0.9014 | 1398.72 ± 9.9 | 58.37 ± 2.1
293.15 K, x1 = 1 | 1414.89 ± 12 | 74.61 ± 5.5
298.15 K, x1 = 0.1024 | 992.96 ± 0.37 | 3.868 ± 0.16
298.15 K, x1 = 0.2019 | 1110.07 ± 0.64 | 6.213 ± 0.25
298.15 K, x1 = 0.2973 | 1187.4 ± 1.2 | 9.224 ± 0.38
298.15 K, x1 = 0.4011 | 1247.97 ± 2 | 13.49 ± 0.56
298.15 K, x1 = 0.4988 | 1290.53 ± 3 | 18.01 ± 0.76
298.15 K, x1 = 0.5962 | 1323.53 ± 4.2 | 23.23 ± 1
298.15 K, x1 = 0.6997 | 1351.73 ± 5.8 | 29.87 ± 1.3
298.15 K, x1 = 0.7931 | 1372.97 ± 7.5 | 37.15 ± 1.7
298.15 K, x1 = 0.9014 | 1393.86 ± 9.9 | 46.91 ± 2.2
298.15 K, x1 = 1 | 1410.03 ± 12 | 58.86 ± 2.3
303.15 K, x1 = 0.1024 | 988.5 ± 0.38 | 3.38 ± 0.14
303.15 K, x1 = 0.2019 | 1105.48 ± 0.63 | 5.362 ± 0.22
303.15 K, x1 = 0.2973 | 1182.67 ± 1.1 | 7.898 ± 0.32
303.15 K, x1 = 0.4011 | 1243.16 ± 1.9 | 11.48 ± 0.48
303.15 K, x1 = 0.4988 | 1285.7 ± 2.9 | 15.21 ± 0.64
303.15 K, x1 = 0.5962 | 1318.7 ± 4.2 | 19.43 ± 0.84
303.15 K, x1 = 0.6997 | 1346.89 ± 5.8 | 24.76 ± 1.1
303.15 K, x1 = 0.7931 | 1368.14 ± 7.5 | 30.48 ± 1.4
303.15 K, x1 = 0.9014 | 1389.02 ± 9.8 | 38.17 ± 1.8
303.15 K, x1 = 1 | 1405.19 ± 12 | 47.27 ± 2.3
308.15 K, x1 = 0.1024 | 984.03 ± 0.38 | 2.972 ± 0.12
308.15 K, x1 = 0.2019 | 1100.81 ± 0.62 | 4.667 ± 0.19
308.15 K, x1 = 0.2973 | 1177.93 ± 1.1 | 6.831 ± 0.28
308.15 K, x1 = 0.4011 | 1238.35 ± 1.9 | 9.85 ± 0.41
308.15 K, x1 = 0.4988 | 1280.88 ± 2.9 | 12.98 ± 0.55
308.15 K, x1 = 0.5962 | 1313.87 ± 4.1 | 16.47 ± 0.71
308.15 K, x1 = 0.6997 | 1342.09 ± 5.7 | 20.85 ± 0.92
308.15 K, x1 = 0.7931 | 1363.32 ± 7.4 | 25.37 ± 1.1
308.15 K, x1 = 0.9014 | 1384.21 ± 9.7 | 31.53 ± 1.5
308.15 K, x1 = 1 | 1400.38 ± 12 | 38.71 ± 1.8
313.15 K, x1 = 0.1024 | 979.55 ± 0.38 | 2.63 ± 0.11
313.15 K, x1 = 0.2019 | 1096.13 ± 0.61 | 4.093 ± 0.17
313.15 K, x1 = 0.2973 | 1173.18 ± 1.1 | 5.966 ± 0.24
313.15 K, x1 = 0.4011 | 1233.59 ± 1.9 | 8.525 ± 0.35
313.15 K, x1 = 0.4988 | 1276.07 ± 2.9 | 11.21 ± 0.47
313.15 K, x1 = 0.5962 | 1309.06 ± 4.1 | 14.12 ± 0.61
313.15 K, x1 = 0.6997 | 1337.29 ± 5.7 | 17.73 ± 0.78
313.15 K, x1 = 0.7931 | 1358.51 ± 7.4 | 21.42 ± 0.97
313.15 K, x1 = 0.9014 | 1379.42 ± 9.7 | 26.43 ± 1.2
313.15 K, x1 = 1 | 1395.59 ± 12 | 32.2 ± 1.5
318.15 K, x1 = 0.1024 | 975.03 ± 0.39 | 2.34 ± 0.094
318.15 K, x1 = 0.2019 | 1091.46 ± 0.6 | 3.684 ± 0.15
318.15 K, x1 = 0.2973 | 1168.42 ± 1.1 | 5.248 ± 0.21
318.15 K, x1 = 0.4011 | 1228.78 ± 1.9 | 7.433 ± 0.31
318.15 K, x1 = 0.4988 | 1271.27 ± 2.9 | 9.743 ± 0.41
318.15 K, x1 = 0.5962 | 1304.24 ± 4.1 | 12.24 ± 0.53
318.15 K, x1 = 0.6997 | 1332.49 ± 5.6 | 15.26 ± 0.67
318.15 K, x1 = 0.7931 | 1353.72 ± 7.3 | 18.28 ± 0.82
318.15 K, x1 = 0.9014 | 1374.63 ± 9.6 | 22.43 ± 1
318.15 K, x1 = 1 | 1390.8 ± 12 | 27.09 ± 1.3
323.15 K, x1 = 0.1024 | 970.48 ± 0.41 | 2.094 ± 0.084
323.15 K, x1 = 0.2019 | 1086.71 ± 0.6 | 3.283 ± 0.13
323.15 K, x1 = 0.2973 | 1163.66 ± 1.1 | 4.64 ± 0.19
323.15 K, x1 = 0.4011 | 1223.97 ± 1.9 | 6.437 ± 0.27
323.15 K, x1 = 0.4988 | 1266.46 ± 2.8 | 8.553 ± 0.36
323.15 K, x1 = 0.5962 | 1299.4 ± 4 | 10.7 ± 0.46
323.15 K, x1 = 0.6997 | 1327.7 ± 5.6 | 13.27 ± 0.58
323.15 K, x1 = 0.7931 | 1348.94 ± 7.3 | 15.77 ± 0.71
323.15 K, x1 = 0.9014 | 1369.87 ± 9.5 | 19.26 ± 0.89
323.15 K, x1 = 1 | 1386.03 ± 12 | 23.14 ± 1.1
